For five compounds, IC50 and inhibition results are on record in ChEMBL document CHEMBL3600359, “Verruculides A and B, two new protein tyrosine phosphatase 1B inhibitors from an Indonesian ascidian-derived Penicillium verruculosum” (Bioorg Med Chem Lett, 2015).

What is called IC50 is the midpoint of a concentration-inhibition curve. Lower therefore signals inhibition by little substance. Usually inhibition stands for the drop in the measured response relative to a control, in per cent.

Assay [1] has as its target T1, Tyrosine-protein phosphatase non-receptor type 1 (Homo sapiens, UniProt P18031).
T1 sequence (P18031 whole entry): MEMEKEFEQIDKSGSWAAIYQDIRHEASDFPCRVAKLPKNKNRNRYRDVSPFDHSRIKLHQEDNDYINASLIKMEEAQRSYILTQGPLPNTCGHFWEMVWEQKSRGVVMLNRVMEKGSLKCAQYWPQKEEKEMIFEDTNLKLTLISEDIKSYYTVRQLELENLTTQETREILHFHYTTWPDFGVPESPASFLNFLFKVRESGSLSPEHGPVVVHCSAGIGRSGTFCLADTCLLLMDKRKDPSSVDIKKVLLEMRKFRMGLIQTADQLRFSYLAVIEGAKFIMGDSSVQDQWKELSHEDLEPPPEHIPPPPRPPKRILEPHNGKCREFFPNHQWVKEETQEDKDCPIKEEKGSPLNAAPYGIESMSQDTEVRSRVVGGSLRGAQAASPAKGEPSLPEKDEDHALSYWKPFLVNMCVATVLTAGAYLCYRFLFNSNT
The assay is described as follows: Inhibition of PTP1B (unknown origin).

Assay [2] deals with T2, Tyrosine-protein phosphatase non-receptor type 1 (Homo sapiens) (UniProt P18031).
T2 sequence (whole entry): T1 sequence (P18031 whole entry)
The experiment in a line: Inhibition of PTP1B (unknown origin) at 20.7 uM.

For assay [3], the target named is T2, Tyrosine-protein phosphatase non-receptor type 1 (Homo sapiens). To be noted: 23.1 uM.
Description: Inhibition of PTP1B (unknown origin) at 23.1 uM

The source made the active and inactive calls. The calls are words filed in the database; no cut-off is given here.

Regarding `C[C@H]1OC(=O)c2c(O)cc3c(c2[C@H]1O)C[C@H]1[C@@]2(C)C=CC(=O)C(C)(C)[C@@H]2C[C@H](O)[C@]1(C)O3`, the IC50 in assay [1] came to 8.5 µM.
On to `CC(=O)O[C@@H]1c2c3c(cc(O)c2C(=O)O[C@@H]1C)O[C@@]1(C)[C@@H](O)C[C@H]2C(C)(C)C(=O)C=C[C@]2(C)[C@@H]1C3`, for which the inhibition result in assay [2] was “inactive”.
In assay [3], `C/C(=C\Cc1c(O)cc(O)c2c1C[C@@H](C)OC2=O)CC/C=C(\C)CCC(O)C(C)(C)O` (stereo not given in full) registered an inhibition of 40%.
For the compound `C[C@@H]1Cc2c3c(cc(O)c2C(=O)O1)O[C@@]1(C)CC[C@H]2C(C)(C)C(=O)C=C[C@]2(C)[C@@H]1C3`, half-maximal inhibition in assay [1] (IC50) was put at 8.4 µM.
On the same count and under the same terms, as for `C[C@@H]1Cc2c3c(cc(O)c2C(=O)O1)O[C@@]1(C)[C@@H](O)C[C@H]2C(C)(C)C(=O)CC[C@]2(C)[C@@H]1C3`, the figure is 14.9 µM.
